Source: paper PMC9653173, “Trotabresib (CC-90010) in combination with adjuvant temozolomide or concomitant temozolomide plus radiotherapy in patients with newly diagnosed glioblastoma” (Neuro-Oncology Advances, 2022)
“And” between values parts separate entries of the source, which are not always exact repeats. Identical values can stand only once. Like-named read-outs stand apart in the source and are kept apart here.

Tests used:
glioblastoma PDX models = test: Tumor growth inhibition in glioblastoma patient-derived xenograft models; assay type: in vivo; details: Supplementary Figure S1
Text: Supplementary Figure 1. Trotabresib-mediated tumor growth inhibition in a glioblastoma patient-derived xenograft with and without TMZ. [picture] ^aTMZ given on days 7–9 and 22–24.

[1] = system: patients with newly diagnosed glioblastoma; details: for TEAEs leading to discontinuation of the labelled study drug(s), patients: February 20, 2022 cutoff; for ALT increased TRAE, any grade / ALT increased TRAE, grade 3/4 / AST increased TRAE, any grade / AST increased TRAE, grade 3/4 / Acneiform dermatitis TRAE, any grade / Acneiform dermatitis TRAE, grade 3/4 / Anemia TRAE, any grade / Anemia TRAE, grade 3/4 / Any TRAE, any grade / Any TRAE, grade 3/4 / Asthenia TRAE, any grade / Asthenia TRAE, grade 3/4 / Blood bilirubin increased TRAE, any grade / Blood bilirubin increased TRAE, grade 3/4 / Decreased appetite TRAE, any grade / Decreased appetite TRAE, grade 3/4 / Diarrhea TRAE, any grade / Diarrhea TRAE, grade 3/4 / Dysgeusia TRAE, any grade / Dysgeusia TRAE, grade 3/4 / Dyspepsia TRAE, any grade / Dyspepsia TRAE, grade 3/4 / Fatigue TRAE, any grade / Fatigue TRAE, grade 3/4 / Hyperbilirubinemia TRAE, any grade / Hyperbilirubinemia TRAE, grade 3/4 / Hyperglycemia TRAE, any grade / Hyperglycemia TRAE, grade 3/4 / Hypophosphatemia TRAE, any grade / Hypophosphatemia TRAE, grade 3/4 / Hypotension TRAE, any grade / Hypotension TRAE, grade 3/4 / Insomnia TRAE, any grade / Insomnia TRAE, grade 3/4 / Intracranial hemorrhage TRAE, any grade / Intracranial hemorrhage TRAE, grade 3/4 / Leukopenia TRAE, any grade / Leukopenia TRAE, grade 3/4 / Lymphopenia TRAE, any grade / Lymphopenia TRAE, grade 3/4 / Nausea TRAE, any grade / Nausea TRAE, grade 3/4 / Neutropenia TRAE, any grade / Neutropenia TRAE, grade 3/4 / Pruritus TRAE, any grade / Pruritus TRAE, grade 3/4 / Rash TRAE, any grade / Rash TRAE, grade 3/4 / Seizure TRAE, any grade / Seizure TRAE, grade 3/4 / Thrombocytopenia TRAE, any grade / Thrombocytopenia TRAE, grade 3/4 / Vomiting TRAE, any grade / Vomiting TRAE, grade 3/4: related to labelled drug(s)
Text: The phase Ib, dose-escalation part of this study explored escalating oral doses of trotabresib in combination with TMZ in the adjuvant setting and with TMZ plus RT in the concomitant setting. […] Dose-escalation decisions were made by the safety review committee, based on all available safety, pharmacokinetics, pharmacodynamics, and preliminary efficacy information, and a calculation of risk assessment using a Bayesian logistic regression model.
The primary endpoints of the study were to determine the safety and tolerability, maximum tolerated dose, and/or recommended phase II dose (RP2D) of trotabresib in combination with TMZ as adjuvant therapy, and with TMZ and RT as concomitant therapy. […] Trotabresib pharmacodynamics was an exploratory endpoint.
Adverse events (AEs) were classified using the Medical Dictionary for Regulatory Activities v18.1 or higher system organ class and preferred term. Severity of AEs was graded based on the patient’s symptoms according to the National Cancer Institute Common Terminology Criteria for Adverse Events v5.0.[35] Dose-limiting toxicities (DLTs) were defined as any of the toxicities described in Supplementary Table S2 occurring within the DLT assessment period (cycle 1 [28 days]), unless the event could clearly be determined to be unrelated to trotabresib. Screening MRI scans were performed after surgical resection and within 28 days (+3 days) prior to initiation of study treatment. Subsequent tumor assessments by MRI or CT were performed at week 10 during the concomitant treatment period and at the end of every other treatment cycle from cycle 2 onwards during the adjuvant and trotabresib monotherapy treatment periods. Best overall response (BOR) was evaluated as complete response (CR), partial response (PR), SD, progressive disease (PD), or not evaluable, according to Response Assessment in Neuro-Oncology criteria for high-grade glioma.[36] Plasma samples were collected during the first treatment cycle for investigation of trotabresib pharmacokinetics and pharmacodynamics. Plasma pharmacokinetic parameters assessed included peak plasma concentration (Cmax), time to peak plasma concentration (tmax), area under the plasma concentration–time curve (AUC), and terminal half-life (t½). Pharmacodynamic markers assessed included blood levels of CCR1 and HEXIM1 mRNA, which are established markers of BET inhibitor target engagement.[17],[22],[37],[38]

## Cn1cc(-c2cc(S(C)(=O)=O)ccc2OCC2CC2)c2ccccc2c1=O [Trotabresib]
Glioblastoma PDX models; glioblastoma PDX models
  Effect on antiproliferative effects of TMZ: enhances the antiproliferative effects of TMZ
Glioblastoma PDX models; glioblastoma models
  Antitumor activity as a single agent: has antitumor activity in glioblastoma models as a single agent
[1]; adjuvant 30 mg (n = 6)
  TRAEs leading to discontinuation of TMZ, related to labelled drug(s): 1 (17) 1 (17) 1 (17) n (%)
  TRAEs leading to discontinuation of any study drug, related to labelled drug(s): 1 (17) 1 (17) 1 (17) n (%)
  TRAEs leading to discontinuation of trotabresib, related to labelled drug(s): 1 (17) 1 (17) 1 (17) n (%)
  TEAEs leading to discontinuation of the labelled study drug(s), patients: 1 (17) 1 (17) 1 (17) n (%)
[1]; adjuvant 45 mg (n = 7)
  TEAEs leading to discontinuation of the labelled study drug(s), patients: 1 (14) 1 (14) 1 (14) n (%)
[1]; adjuvant (+ TMZ) and concomitant (+ TMZ + RT) settings, 4 days on/24 days off
  Recommended phase II dose (RP2D): 30 mg
[1]; adjuvant overall
  Rash and other skin-related TRAEs attributed to trotabresib only: 7 (39%) n (%)
[1]; adjuvant overall (N = 18)
  TRAEs leading to discontinuation of TMZ, related to labelled drug(s): 1 (6) 1 (6) 1 (6) n (%)
  TRAEs leading to discontinuation of any study drug, related to labelled drug(s): 1 (6) 1 (6) 1 (6) n (%)
  TRAEs leading to discontinuation of trotabresib, related to labelled drug(s): 1 (6) 1 (6) 1 (6) n (%)
  TEAEs leading to discontinuation of the labelled study drug(s), patients: 2 (11) 2 (11) 2 (11) n (%)
  ALT increased TRAE, any grade: 1 (6) n (%)
  ALT increased TRAE, grade 3/4: 0 n (%)
  AST increased TRAE, any grade: 1 (6) n (%)
  AST increased TRAE, grade 3/4: 0 n (%)
  Acneiform dermatitis TRAE, any grade: 3 (17) n (%)
  Acneiform dermatitis TRAE, grade 3/4: 0 n (%)
  Anemia TRAE, any grade: 4 (22) n (%)
  Anemia TRAE, grade 3/4: 0 n (%)
  Any TRAE, any grade: 16 (89) n (%)
  Any TRAE, grade 3/4: 9 (50) n (%)
  Asthenia TRAE, any grade: 7 (39) n (%)
  Asthenia TRAE, grade 3/4: 1 (6) n (%)
  Blood bilirubin increased TRAE, any grade: 0 n (%)
  Blood bilirubin increased TRAE, grade 3/4: 0 n (%)
  Decreased appetite TRAE, any grade: 6 (33) n (%)
  Decreased appetite TRAE, grade 3/4: 0 n (%)
  Diarrhea TRAE, any grade: 11 (61) n (%)
  Diarrhea TRAE, grade 3/4: 1 (6) n (%)
  Dysgeusia TRAE, any grade: 6 (33) n (%)
  Dysgeusia TRAE, grade 3/4: 0 n (%)
  Dyspepsia TRAE, any grade: 2 (11) n (%)
  Dyspepsia TRAE, grade 3/4: 0 n (%)
  Fatigue TRAE, any grade: 2 (11) n (%)
  Fatigue TRAE, grade 3/4: 0 n (%)
  Hyperbilirubinemia TRAE, any grade: 6 (33) n (%)
  Hyperbilirubinemia TRAE, grade 3/4: 1 (6) n (%)
  Hyperglycemia TRAE, any grade: 4 (22) n (%)
  Hyperglycemia TRAE, grade 3/4: 1 (6) n (%)
  Hypophosphatemia TRAE, any grade: 2 (11) n (%)
  Hypophosphatemia TRAE, grade 3/4: 0 n (%)
  Hypotension TRAE, any grade: 2 (11) n (%)
  Hypotension TRAE, grade 3/4: 0 n (%)
  Insomnia TRAE, any grade: 2 (11) n (%)
  Insomnia TRAE, grade 3/4: 0 n (%)
  Intracranial hemorrhage TRAE, any grade: 1 (6) n (%)
  Intracranial hemorrhage TRAE, grade 3/4: 1 (6) n (%)
  Leukopenia TRAE, any grade: 1 (6) n (%)
  Leukopenia TRAE, grade 3/4: 0 n (%)
  Lymphopenia TRAE, any grade: 2 (11) n (%)
  Lymphopenia TRAE, grade 3/4: 1 (6) n (%)
  Nausea TRAE, any grade: 9 (50) n (%)
  Nausea TRAE, grade 3/4: 0 n (%)
  Neutropenia TRAE, any grade: 5 (28) n (%)
  Neutropenia TRAE, grade 3/4: 3 (17) n (%)
  Pruritus TRAE, any grade: 3 (17) n (%)
  Pruritus TRAE, grade 3/4: 0 n (%)
  Rash TRAE, any grade: 5 (28) n (%)
  Rash TRAE, grade 3/4: 0 n (%)
  Seizure TRAE, any grade: 0 n (%)
  Seizure TRAE, grade 3/4: 0 n (%)
  Thrombocytopenia TRAE, any grade: 10 (56%) n (%) and 10 (56) n (%)
  Thrombocytopenia TRAE, grade 3/4: 7 (39%) n (%) and 7 (39) n (%)
  Vomiting TRAE, any grade: 4 (22) n (%)
  Vomiting TRAE, grade 3/4: 0 n (%)
[1]; adjuvant, trotabresib 30 mg
  Serious intracranial hemorrhage, attributed to trotabresib: 1 patient
[1]; adjuvant, trotabresib 45 mg
  Serious diarrhea, attributed to trotabresib: 1 patient
[1]; both cohorts
  Treatment-related deaths: no treatment-related deaths
[1]; concomitant overall
  Rash and other skin-related TRAEs attributed to trotabresib only: 4 (29%) n (%)
[1]; concomitant overall (N = 14)
  ALT increased TRAE, any grade: 1 (7) n (%)
  ALT increased TRAE, grade 3/4: 1 (7) n (%)
  AST increased TRAE, any grade: 1 (7) n (%)
  AST increased TRAE, grade 3/4: 0 n (%)
  Acneiform dermatitis TRAE, any grade: 3 (21) n (%)
  Acneiform dermatitis TRAE, grade 3/4: 0 n (%)
  Anemia TRAE, any grade: 3 (21) n (%)
  Anemia TRAE, grade 3/4: 2 (14) n (%)
  Any TRAE, any grade: 14 (100) n (%)
  Any TRAE, grade 3/4: 7 (50) n (%)
  Asthenia TRAE, any grade: 3 (21) n (%)
  Asthenia TRAE, grade 3/4: 0 n (%)
  Blood bilirubin increased TRAE, any grade: 2 (14) n (%)
  Blood bilirubin increased TRAE, grade 3/4: 0 n (%)
  Decreased appetite TRAE, any grade: 3 (21) n (%)
  Decreased appetite TRAE, grade 3/4: 0 n (%)
  Diarrhea TRAE, any grade: 2 (14) n (%)
  Diarrhea TRAE, grade 3/4: 1 (7) n (%)
  Dysgeusia TRAE, any grade: 5 (36) n (%)
  Dysgeusia TRAE, grade 3/4: 0 n (%)
  Dyspepsia TRAE, any grade: 2 (14) n (%)
  Dyspepsia TRAE, grade 3/4: 0 n (%)
  Fatigue TRAE, any grade: 5 (36) n (%)
  Fatigue TRAE, grade 3/4: 1 (7) n (%)
  Hyperbilirubinemia TRAE, any grade: 2 (14) n (%)
  Hyperbilirubinemia TRAE, grade 3/4: 0 n (%)
  Hyperglycemia TRAE, any grade: 1 (7) n (%)
  Hyperglycemia TRAE, grade 3/4: 0 n (%)
  Hypophosphatemia TRAE, any grade: 1 (7) n (%)
  Hypophosphatemia TRAE, grade 3/4: 0 n (%)
  Hypotension TRAE, any grade: 0 n (%)
  Hypotension TRAE, grade 3/4: 0 n (%)
  Insomnia TRAE, any grade: 0 n (%)
  Insomnia TRAE, grade 3/4: 0 n (%)
  Intracranial hemorrhage TRAE, any grade: 0 n (%)
  Intracranial hemorrhage TRAE, grade 3/4: 0 n (%)
  Leukopenia TRAE, any grade: 0 n (%)
  Leukopenia TRAE, grade 3/4: 0 n (%)
  Lymphopenia TRAE, any grade: 2 (14) n (%)
  Lymphopenia TRAE, grade 3/4: 0 n (%)
  Nausea TRAE, any grade: 8 (57%) n (%) and 8 (57) n (%)
  Nausea TRAE, grade 3/4: 0 n (%)
  Neutropenia TRAE, any grade: 6 (43) n (%)
  Neutropenia TRAE, grade 3/4: 4 (29) n (%)
  Pruritus TRAE, any grade: 0 n (%)
  Pruritus TRAE, grade 3/4: 0 n (%)
  Rash TRAE, any grade: 1 (7) n (%)
  Rash TRAE, grade 3/4: 0 n (%)
  Seizure TRAE, any grade: 2 (14) n (%)
  Seizure TRAE, grade 3/4: 0 n (%)
  Thrombocytopenia TRAE, any grade: 9 (64%) n (%) and 9 (64) n (%)
  Thrombocytopenia TRAE, grade 3/4: 6 (43%) n (%) and 6 (43) n (%)
  Vomiting TRAE, any grade: 5 (36) n (%)
  Vomiting TRAE, grade 3/4: 0 n (%)
[1]; trotabresib 30 mg 4 days on/24 days off
  Platelet nadir: > 100,000 /mm^3
